In US10638756B2, “Molecules having pesticidal utility, and intermediates, compositions, and processes, related thereto” (Dow AgroSciences LLC, priority 2017, dated 2020) one finds mortality data, which are given here for 23 molecules.

In assay [1] the test system is Cabbage Looper (Trichoplusia ni). Kind of assay: Bioassay on Cabbage Looper (CL), 128-well diet tray assay. It is filed as in vivo. As to conditions: 168 h, 50 μg/cm^2 on artificial diet, second instar larvae, five to seven days, read-out: CL % Control (or Mortality) rating. In short, it runs like this: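 Activity is mean percent mortality over eight wells of second-instar larvae exposed to diet treated at 50 μg/cm^2 for 5–7 days at 25° C.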

Assay [2] has as its system Beet Armyworm (Spodoptera exigua). As to the kind of experiment: Bioassay on Beet Armyworm (BAW), 128-well diet tray assay. It is filed as in vivo. The note with it: Spodoptera exigua, 168 h; 50 μg/cm^2 on artificial diet, second instar larvae, five to seven days; read-out: BAW % Control (or Mortality) rating.

SMILES strings stand for the structures.

Take `O=C(NNc1ncccn1)c1ccc(/C(F)=C/C(c2cc(Br)c(F)c(Br)c2)C(F)(F)F)cc1C(F)(F)F` (stereo not shown) [F163, (Z)-4-(3-(3,5-Dibromo-4-fluorophenyl)-1,4,4,4-tetrafluorobut-1-en-1-yl)-N′-(pyrimidin-2-yl)-2-(trifluoromethyl)benzohydrazide]: the mortality at 50 µg/cm2 in assay [1] and in assay [2] was 50 to 100% throughout.
On to `CN(NC(=O)c1ccc(/C(F)=C/C(c2cc(Cl)c(Cl)c(Cl)c2)C(F)(F)F)cc1C(F)(F)F)c1ncc([N+](=O)[O-])cn1` (stereo not shown) [F164, (Z)—N′-Methyl-N′-(5-nitropyrimidin-2-yl)-4-(1,4,4,4-tetrafluoro-3-(3,4,5-trichlorophenyl)but-1-en-1-yl)-2-(trifluoromethyl)benzohydrazide], for which the mortality at 50 µg/cm2 in assay [1] and in assay [2] was 50 to 100% throughout.
`O=C(NNc1cccc(Br)n1)c1ccc(/C(F)=C/C(c2cc(Cl)c(Cl)c(Cl)c2)C(F)(F)F)cc1C(F)(F)F` (stereo not shown) [F165, (Z)—N′-(6-Bromopyridin-2-yl)-4-(1,4,4,4-tetrafluoro-3-(3,4,5-trichlorophenyl)but-1-en-1-yl)-2-(trifluoromethyl)benzohydrazide]: the mortality at 50 µg/cm2 in assay [1] and in assay [2] was 50 to 100% throughout.
Consider `CN(NC(=O)c1ccc(/C(F)=C/C(c2cc(Cl)c(Cl)c(Cl)c2)C(F)(F)F)cc1C(F)(F)F)c1ncc(N)cn1` (stereo not shown) [F166, (Z)—N′-(5-Aminopyrimidin-2-yl)-N′-methyl-4-(1,4,4,4-tetrafluoro-3-(3,4,5-trichlorophenyl)but-1-en-1-yl)-2-(trifluoromethyl)benzohydrazide], for which the mortality at 50 µg/cm2 in assay [1] and in assay [2] was 50 to 100% each time.
For the molecule `O=C(NNc1ncccn1)c1ccc(/C(F)=C/C(c2ccc(C(F)(F)F)c(Cl)c2)C(F)(F)F)cc1C(F)(F)F` (stereo not shown) [F167, (Z)-4-(3-(3-Chloro-4-(trifluoromethyl)phenyl)-1,4,4,4-tetrafluorobut-1-en-1-yl)-N′-(pyrimidin-2-yl)-2-(trifluoromethyl)benzohydrazide], the mortality at 50 µg/cm2 in assay [1] and in assay [2] was 50 to 100% throughout.
`C=Cc1cc(C(/C=C(\F)c2ccc(C(=O)NNc3ncccn3)c(C(F)(F)F)c2)C(F)(F)F)cc(Cl)c1Cl` (stereo not shown) [F168, (Z)-4-(3-(3,4-dichloro-5-vinylphenyl)-1,4,4,4-tetrafluorobut-1-en-1-yl)-N′-(pyrimidin-2-yl)-2-(trifluoromethyl)benzohydrazide]: the mortality at 50 µg/cm2 in assay [1] and in assay [2] was 50 to 100% each time.
Take `CC(C)N(NC(=O)c1ccc(/C(F)=C/C(c2cc(Cl)c(Cl)c(Cl)c2)C(F)(F)F)cc1C(F)(F)F)c1ncccn1` (stereo not shown) [F169, (Z)—N′-Isopropyl-N′-(pyrimidin-2-yl)-4-(1,4,4,4-tetrafluoro-3-(3,4,5-trichlorophenyl)but-1-en-1-yl)-2-(trifluoromethyl)benzohydrazide]: the mortality at 50 µg/cm2 in assay [1] and in assay [2] was 50 to 100% in each case.
Turning to `CC(C)N(Nc1ncccn1)C(=O)c1ccc(/C(F)=C/C(c2cc(Cl)c(Cl)c(Cl)c2)C(F)(F)F)cc1C(F)(F)F` (stereo not shown) [F170, (Z)—N-Isopropyl-N′-(pyrimidin-2-yl)-4-(1,4,4,4-tetrafluoro-3-(3,4,5-trichlorophenyl)but-1-en-1-yl)-2-(trifluoromethyl)benzohydrazide], the mortality at 50 µg/cm2 in assay [1] and in assay [2] was 50 to 100% throughout.
Regarding `CN(NC(=O)c1ccc(/C(F)=C/C(c2cc(Cl)c(Cl)c(Br)c2)C(F)(F)F)cc1C(F)(F)F)c1ncccn1` (stereo not shown) [F171, (Z)-4-(3-(3-Bromo-4,5-dichlorophenyl)-1,4,4,4-tetrafluorobut-1-en-1-yl)-N′-methyl-N′-(pyrimidin-2-yl)-2-(trifluoromethyl)benzohydrazide], the mortality at 50 µg/cm2 in assay [1] and in assay [2] was 50 to 100% in each case.
Take `O=C(NNc1ncccn1)c1ccc(/C(F)=C/C(c2cc(Cl)cc(Br)c2)C(F)(F)F)cc1C(F)(F)F` (stereo not shown) [F173, (Z)-4-(3-(3-Bromo-5-chlorophenyl)-1,4,4,4-tetrafluorobut-1-en-1-yl)-N′-(pyrimidin-2-yl)-2-(trifluoromethyl)benzohydrazide]: the mortality at 50 µg/cm2 in assay [1] and in assay [2] was 50 to 100% throughout.
With `O=C(NNc1ncccn1)c1ccc(/C(F)=C/C(c2cc(F)c(F)c(Cl)c2)C(F)(F)F)cc1C(F)(F)F` (stereo not shown) [F174, (Z)-4-(3-(3-Chloro-4,5-difluorophenyl)-1,4,4,4-tetrafluorobut-1-en-1-yl)-N′-(pyrimidin-2-yl)-2-(trifluoromethyl)benzohydrazide], the mortality at 50 µg/cm2 in assay [1] and in assay [2] was 50 to 100% each time.
Regarding `CN(NC(=O)c1ccc(/C(F)=C/C(c2cc(F)c(F)c(Cl)c2)C(F)(F)F)cc1C(F)(F)F)c1ncccn1` (stereo not shown) [F175, (Z)-4-(3-(3-Chloro-4,5-difluorophenyl)-1,4,4,4-tetrafluorobut-1-en-1-yl)-N′-methyl-N′-(pyrimidin-2-yl)-2-(trifluoromethyl)benzohydrazide], the mortality at 50 µg/cm2 in assay [1] and in assay [2] was 50 to 100% throughout.
Consider `O=C(NNc1ncccn1)c1ccc(/C(F)=C/C(c2ccc(Br)c(Br)c2)C(F)(F)F)cc1C(F)(F)F` (stereo not shown) [F177, (Z)-4-(3-(3,4-Dibromophenyl)-1,4,4,4-tetrafluorobut-1-en-1-yl)-N′-(pyrimidin-2-yl)-2-(trifluoromethyl)benzohydrazide], for which the mortality at 50 µg/cm2 in assay [1] and in assay [2] was 50 to 100% throughout.
Regarding `O=C(NNc1ncccn1)c1ccc(/C(F)=C/C(c2ccc(Cl)c(Br)c2)C(F)(F)F)cc1C(F)(F)F` (stereo not shown) [F178, (Z)-4-(3-(3-Bromo-4-chlorophenyl)-1,4,4,4-tetrafluorobut-1-en-1-yl)-N′-(pyrimidin-2-yl)-2-(trifluoromethyl)benzohydrazide], the mortality at 50 µg/cm2 in assay [1] and in assay [2] was 50 to 100% throughout.
With `COCN(NC(=O)c1ccc(/C(F)=C/C(c2cc(Cl)c(Cl)c(Cl)c2)C(F)(F)F)cc1C(F)(F)F)c1ncccn1` (stereo not shown) [F179, (Z)—N′-(methoxymethyl)-N′-(pyrimidin-2-yl)-4-(1,4,4,4-tetrafluoro-3-(3,4,5-trichlorophenyl)but-1-en-1-yl)-2-(trifluoromethyl)benzohydrazide], the mortality at 50 µg/cm2 in assay [1] and in assay [2] was 50 to 100% in each case.
Regarding `O=C(NNc1ncccn1)c1ccc(/C(F)=C/C(c2ccc(F)c(Cl)c2)C(F)(F)F)cc1C(F)(F)F` (stereo not shown) [F182, (Z)-4-(3-(3-Chloro-4-fluorophenyl)-1,4,4,4-tetrafluorobut-1-en-1-yl)-N′-(pyrimidin-2-yl)-2-(trifluoromethyl)benzohydrazide], the mortality at 50 µg/cm2 in assay [1] and in assay [2] was 50 to 100% each time.
Turning to `O=C(NNc1ncccn1)c1ccc(/C(F)=C/C(c2cc(Br)c(Cl)c(Br)c2)C(F)(F)F)cc1C(F)(F)F` (stereo not shown) [F185, (Z)-4-(3-(3,5-Dibromo-4-chlorophenyl)-1,4,4,4-tetrafluorobut-1-en-1-yl)-N′-(pyrimidin-2-yl)-2-(trifluoromethyl)benzohydrazide], the mortality at 50 µg/cm2 in assay [1] and in assay [2] was 50 to 100% each time.
As for `O=C(NNc1ncccn1)c1ccc(/C(F)=C/C(c2cc(Cl)c(Cl)c(C(F)F)c2)C(F)(F)F)cc1C(F)(F)F` (stereo not shown) [F186, (Z)-4-(3-(3,4-Dichloro-5-(difluoromethyl)phenyl)-1,4,4,4-tetrafluorobut-1-en-1-yl)-N′-(pyrimidin-2-yl)-2-(trifluoromethyl)benzohydrazide], the mortality at 50 µg/cm2 in assay [1] and in assay [2] was 50 to 100% throughout.
`N#CCN(C(=O)c1ccc(/C(F)=C/C(c2cc(Cl)c(Cl)c(Cl)c2)C(F)(F)F)cc1C(F)(F)F)N(CC#N)c1ncccn1` (stereo not shown) [F187, (Z)—N,N′-bis(cyanomethyl)-N′-(pyrimidin-2-yl)-4-(1,4,4,4-tetrafluoro-3-(3,4,5-trichlorophenyl)but-1-en-1-yl)-2-(trifluoromethyl)benzohydrazide]: the mortality at 50 µg/cm2 in assay [1] and in assay [2] was 50 to 100% each time.
`O=C(NNc1ncccn1)c1ccc(/C(F)=C/C(c2cc(F)c(Cl)c(F)c2)C(F)(F)F)cc1C(F)(F)F` (stereo not shown) [F188, (Z)-4-(3-(4-Chloro-3,5-difluorophenyl)-1,4,4,4-tetrafluorobut-1-en-1-yl)-N′-(pyrimidin-2-yl)-2-(trifluoromethyl)benzohydrazide]: the mortality at 50 µg/cm2 in assay [1] and in assay [2] was 50 to 100% throughout.
`N#CCN(NC(=O)c1ccc(/C(F)=C/C(c2cc(Cl)c(Cl)c(Cl)c2)C(F)(F)F)cc1C(F)(F)F)c1ncccn1` (stereo not shown) [F189, (Z)—N′-(cyanomethyl)-N′-(pyrimidin-2-yl)-4-(1,4,4,4-tetrafluoro-3-(3,4,5-trichlorophenyl)but-1-en-1-yl)-2-(trifluoromethyl)benzohydrazide]: the mortality at 50 µg/cm2 in assay [1] and in assay [2] was 50 to 100% each time.
As for `C=C(OCC)c1c(Cl)cc(C(/C=C(\F)c2ccc(C(=O)NNc3ncccn3)c(C(F)(F)F)c2)C(F)(F)F)cc1Cl` (stereo not shown) [F190, (Z)-4-(3-(3,5-Dichloro-4-(1-ethoxyvinyl)phenyl)-1,4,4,4-tetrafluorobut-1-en-1-yl)-N′-(pyrimidin-2-yl)-2-(trifluoromethyl)benzohydrazide], the mortality at 50 µg/cm2 in assay [1] and in assay [2] was 50 to 100% in each case.
For the molecule `O=C(NNc1ncccn1)c1ccc(/C(F)=C/C(c2cc(Cl)c(Cl)c(C3CC3)c2)C(F)(F)F)cc1C(F)(F)F` (stereo not shown) [F191, (Z)-4-(3-(3,4-Dichloro-5-cyclopropylphenyl)-1,4,4,4-tetrafluorobut-1-en-1-yl)-N′-(pyrimidin-2-yl)-2-(trifluoromethyl)benzohydrazide], the mortality at 50 µg/cm2 in assay [1] and in assay [2] was 50 to 100% each time.

Usually mortality stands for the percentage killed.
